In EP3831363A1 (Solis Herrera, Arturo, priority 2019, dated 2021):
≈ marks a conversion by molar mass, not a printed value.

Key:
HS-683 = experiment: cells; conditions: Homo sapiens, Hs 683, 96 h
Experimental: (§1) Further, a proliferation test was prepared for the same three cell lines: WI-38, A549 and HS 683. 3x10^4 WI-38 cells and 2x10^4 A549 and HS 683. Cells were seeded into each wells in 96-well culture plates in appropriate culture medium with 10% FBS (fetal bovine serum). […] After 96 hours incubation in 37°C/5%CO2 MTT assay was performed for establishing the cell viability.

A549 cells = experiment: cells; conditions: Homo sapiens, A549, 96 h
Experimental: as §1

WI-38 cells = experiment: cells; conditions: Homo sapiens, WI-38, 96 h
Experimental: as §1

human PBLs = conditions: human leukocytes, 48 hours, MTT
Experimental: (§4) Thereby, cell viability was determined on the basis of the mitochondria-dependent reduction of MTT (3-[4,5-dimethyltiazol 2yl]-2,5-diphenyltetrazolium bromide) to formazan. […] Next cells were treated with 20 µl of MTT. After 3 hours of incubation at 37°C, the formazan blue formed in the cells was dissolved in 100 µl of SDS (sodium dodecylsulfate) for 3 hours in 37°C. The optical density was measured at 570 nm.
(§5) After the cytotoxicity tests LC50 (LCso-lethal concentration, 50%-dose required to kill half of the cells after a specified test duration) were estimated for each cell lines and PBLs (leukocytes of peripheral blood). Additionally for PBLs LC10 and LC5 were calculated.

[1] = rats given 4,5 mg/kg of mercury (HgHCI); treatment of 0,0937 mg/ml; without treatment 6 in 8 rats died
in vitro = conditions: human, peripheral blood leukocytes
Experimental: as §4, §5

IL-6 production = system: IL-6 production
Experimental: (§2) After 24 hours of incubation in 37°C/5%CO2 samples of leukocytes and supernatants were collected.
(§3) Cytokine levels were determined using ELISA kits (BD Biosciences, USA) for human IFNγ, TNF-α and IL-6 and DuoSet for human IL-3 (R&D Systems, USA) according to the producers' instructions. The optical density was measured at 450 nm using a Multiskan RC spectrophotometric reader (Thermo Labsystems, USA), Cytokine concentrations were expressed in pg/ml.

IFN-γ production = system: IFN-γ production
Experimental: as §2, §3

TNF-α production = system: TNF-α production
Experimental: as §2, §3

[2] = in vivo
Source text: Thereby the healing process of a human ulcer is examined as a basic condition.

H1N1 virus = conditions: H1N1 infected chicken, 0,002 mg/kg each 24 hours, 24 hours after treatment, versus control group
[3] = read-out: concentration that inhibits 50% of the proliferation

CN1CCC[C@H]1c1cccnc1 gave an IC99 (HS-683; read-out: concentration at which 99% of proliferation are inhibited) of 5500 µg/mL, an IC50 (HS-683; [3]) of 2900 µg/mL (≈ 17.9 mM) and an IC50 (A549 cells; [3]) of 2000 µg/mL (≈ 12.3 mM). It also gave an IC99 (A549 cells; read-out: concentration that inhibits 99% of the proliferation) of 5500 µg/mL, an IC50 (WI-38 cells; [3]) of 1000 µg/mL (≈ 6.16 mM) and an IC99 (WI-38 cells; read-out: concentration that inhibits a proliferation of 99%) of 4500 µg/mL. For the same compound, the LC5 (human PBLs) was 0,5 mg/ml, the LC10 (human PBLs) was 1 mg/mL (≈ 6.16 mM) and the mortality [1] was 0,625 of 8 rats. For the same compound, the CC50 at 48 h (in vitro) was 7000 µg/mL (≈ 43.1 mM), the “effect on IL-6 production” value (IL-6 production) was “no effect” and the “effect on IFN-γ production” value (IFN-γ production) was “strongly decreases the level of interferon in a dose-dependent manner”. The “effect on TNF-α production” value (TNF-α production) was “increases the level of cytokines in a dose-dependent manner”, the “healing effect on ulcer” value [2] was “increased healing effect” and the egg production (H1N1 virus) was “began to lay off eggs”.
